This passage reports IC50 results from patent US10233156B2, “9-membered fused ring derivative” (Shionogi & Co., Ltd., priority 2015, dated 2019).

Broadly, the IC50 is the concentration needed to halve the response being measured.

Chain of recombinant human ACC2 (O00763 27-2458): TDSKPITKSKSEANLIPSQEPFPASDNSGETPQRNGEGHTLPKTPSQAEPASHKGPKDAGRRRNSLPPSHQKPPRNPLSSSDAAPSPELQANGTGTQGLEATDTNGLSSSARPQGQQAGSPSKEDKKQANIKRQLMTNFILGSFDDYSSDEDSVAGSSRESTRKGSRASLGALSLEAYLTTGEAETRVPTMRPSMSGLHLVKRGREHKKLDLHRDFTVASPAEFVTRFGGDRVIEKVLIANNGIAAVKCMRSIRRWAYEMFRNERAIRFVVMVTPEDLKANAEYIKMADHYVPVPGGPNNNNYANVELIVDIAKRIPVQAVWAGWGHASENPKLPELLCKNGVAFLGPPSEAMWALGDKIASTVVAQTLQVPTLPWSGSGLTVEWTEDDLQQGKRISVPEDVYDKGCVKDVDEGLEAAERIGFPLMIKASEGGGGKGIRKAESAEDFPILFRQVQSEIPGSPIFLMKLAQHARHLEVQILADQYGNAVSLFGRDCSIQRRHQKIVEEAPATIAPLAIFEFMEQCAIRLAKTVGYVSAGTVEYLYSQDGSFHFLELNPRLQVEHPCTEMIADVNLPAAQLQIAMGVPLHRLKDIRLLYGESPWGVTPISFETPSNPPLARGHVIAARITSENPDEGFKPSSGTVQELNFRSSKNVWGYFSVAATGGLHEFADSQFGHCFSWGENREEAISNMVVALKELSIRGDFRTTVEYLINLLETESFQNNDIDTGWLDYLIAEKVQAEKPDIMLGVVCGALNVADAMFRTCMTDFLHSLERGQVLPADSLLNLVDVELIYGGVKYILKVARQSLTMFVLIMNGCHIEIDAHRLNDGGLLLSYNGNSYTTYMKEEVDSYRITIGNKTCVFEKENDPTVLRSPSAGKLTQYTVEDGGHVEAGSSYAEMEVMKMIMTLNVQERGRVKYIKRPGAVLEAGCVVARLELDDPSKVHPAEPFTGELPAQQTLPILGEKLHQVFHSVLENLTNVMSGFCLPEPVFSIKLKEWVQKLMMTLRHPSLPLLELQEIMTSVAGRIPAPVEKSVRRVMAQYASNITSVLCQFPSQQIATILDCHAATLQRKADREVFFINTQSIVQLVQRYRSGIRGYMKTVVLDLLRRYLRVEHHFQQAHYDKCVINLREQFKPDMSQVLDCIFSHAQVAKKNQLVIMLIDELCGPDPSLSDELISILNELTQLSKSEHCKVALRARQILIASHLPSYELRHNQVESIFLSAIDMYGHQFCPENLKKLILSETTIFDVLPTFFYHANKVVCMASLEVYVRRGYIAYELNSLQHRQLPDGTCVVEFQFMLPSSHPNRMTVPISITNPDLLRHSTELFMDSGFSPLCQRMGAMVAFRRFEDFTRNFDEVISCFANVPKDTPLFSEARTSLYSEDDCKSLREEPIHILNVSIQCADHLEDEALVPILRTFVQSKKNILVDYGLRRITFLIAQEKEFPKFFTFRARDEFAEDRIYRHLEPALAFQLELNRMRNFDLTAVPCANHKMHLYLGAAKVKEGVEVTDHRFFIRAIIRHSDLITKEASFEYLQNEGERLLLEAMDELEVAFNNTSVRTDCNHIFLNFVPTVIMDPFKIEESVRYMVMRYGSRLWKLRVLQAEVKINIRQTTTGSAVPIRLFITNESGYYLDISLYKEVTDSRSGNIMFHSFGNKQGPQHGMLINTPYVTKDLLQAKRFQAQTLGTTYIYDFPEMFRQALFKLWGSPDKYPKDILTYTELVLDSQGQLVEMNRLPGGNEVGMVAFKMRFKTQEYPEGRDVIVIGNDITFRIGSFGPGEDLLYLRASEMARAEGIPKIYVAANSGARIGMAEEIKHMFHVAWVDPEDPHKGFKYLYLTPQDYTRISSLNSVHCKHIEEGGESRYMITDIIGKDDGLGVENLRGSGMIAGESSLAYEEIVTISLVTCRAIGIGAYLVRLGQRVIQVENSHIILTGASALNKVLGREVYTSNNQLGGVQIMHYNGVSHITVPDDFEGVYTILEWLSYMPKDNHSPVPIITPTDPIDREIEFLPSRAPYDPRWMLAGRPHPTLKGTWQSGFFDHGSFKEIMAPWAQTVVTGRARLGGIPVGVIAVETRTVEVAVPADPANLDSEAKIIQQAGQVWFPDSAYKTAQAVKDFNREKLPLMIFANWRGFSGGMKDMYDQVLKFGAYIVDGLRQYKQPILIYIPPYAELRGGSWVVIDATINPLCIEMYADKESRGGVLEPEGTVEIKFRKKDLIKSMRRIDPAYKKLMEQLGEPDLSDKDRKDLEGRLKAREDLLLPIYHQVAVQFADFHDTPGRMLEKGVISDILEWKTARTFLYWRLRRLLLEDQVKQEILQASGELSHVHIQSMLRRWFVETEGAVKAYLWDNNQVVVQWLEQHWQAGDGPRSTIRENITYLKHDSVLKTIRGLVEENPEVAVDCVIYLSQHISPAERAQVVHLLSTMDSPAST

This experiment addresses recombinant human ACC2 (Homo sapiens (Human), UniProt O00763). Kind of experiment: Measurement of inhibitory activity on human ACC2 (MALDI-TOF MS, conversion of acetyl CoA to malonyl CoA). In kind it is biochemical. The settings on record: recombinant human ACC2, room temperature, 1 to 3 hours. The source says:
After a cDNA encoding human ACC2 (27 amino acid residue to 2458 amino acid residues from the N-terminus) was cloned from human kidney cDNA library (Clontech), human ACC2 gene containing His-tag sequence at 5′ terminus was inserted into pFastBac1 (Invitrogen). Recombinant baculovirus was generated using Bac-to-Bac baculovirus expression system (Invitrogen) according to the manufacturer's protocol. To express human ACC2, Sf-9 cells were infected with recombinant baculovirus. After infected cells were disrupted, the filtrated lysate was subjected to Ni-affinity chromatography and anion-exchange chromatography. The fractions containing human ACC2 protein were pooled as recombinant human ACC2 solution.
Recombinant human ACC1 and recombinant human ACC2, which were prepared by the method mentioned above, were preincubated with assay buffer solution (50 mM HEPES-KOH (pH 7.4), 10 mM magnesium chloride, 6-10 mM potassium citrate, 4 mM reduced form of glutathione, 1.5 mg/ml bovine serum albumin) for one hour. Then, 0.2 μL of each this invention compound solution (in DMSO) were dispensed to 384-well microplate, 5 μL of the preincubated enzyme solution and 5 μL of substrate solution (50 mM HEPES-KOH (pH 7.4), 1 mM ATP, 0.8 mM acetyl CoA and 25-50 mM potassium bicarbonate) were added to microplate. After centrifugation and shaking, the reaction mixtures were incubated in a humidified box at room temperature for 1 to 3 hours. After the incubation, the enzyme reactions were stopped by the addition of EDTA. Then, after the samples were cocrystallized with CHCA (α-cyano-4-hydroxy cinnamic acid) matrices on MALDI target plate, by using the matrix assist laser […] time-of-flight mass spectrometer (MALDI-TOF MS), samples were measured in reflector negative mode. Deprotonated ions of acetyl CoA (AcCoA) of substrate and malonyl CoA (MalCoA) of the reaction product were detected, then, the conversion rates of acetyl CoA to malonyl CoA was calculated by the intensity of [MalCoA-H]−/(Intensity of [MalCoA-H].+Intensity of [AcCoA-H]—) using each signal strength. […] In addition, potassium citrate concentrations in assay buffer solution, potassium hydrogen carbonate concentrations in substrate solution and incubation time were adjusted by each lot of enzyme.
With `CC(=O)N[C@@H](C)CO[C@H]1CC[C@H](Oc2nc3c(F)cc(OCC4(F)COC4)c(F)c3n2C)CC1` [Example I-195], the IC50 turned out to be 35 nM.
As for `CC(=O)N[C@@H](C)CC[C@H]1OC[C@H](Oc2nc3c(F)cc(OCC(F)F)c(F)c3n2C)C[C@@H]1F` [Example I-196], the IC50 is 10 nM.
For the compound `C[C@@H](CO[C@H]1CC[C@H](Oc2nc3ccc(OC4CC4)cc3n2C)CC1)NC(N)=O` [Example I-197], the IC50 is 13 nM.
With `C[C@@H](CO[C@H]1CC[C@H](Oc2nc3ccc(OC4CC4)c(F)c3n2C)CC1)NC(N)=O` [Example I-198], the IC50 amounted to 5.3 nM.
Then `CC(=O)N[C@@H](CF)CO[C@H]1CC[C@H](Oc2nc3c(F)cc(OC4CC4)cc3n2C)CC1` [Example I-201], with 4.7 nM.
In the case of `CC(=O)N[C@@H](C)CO[C@H]1CC[C@H](Oc2nc3ccc(OC4(C)CC4)cc3n2C)CC1` [Example I-202] it was 17 nM; in that of `CC(=O)N[C@@H](C)CO[C@H]1CC[C@H](Oc2nc3c(F)cc(OC4(C)COC4)c(F)c3n2C)CC1` [Example I-203], 110 nM; in that of `CC(=O)N[C@@H](CF)CO[C@H]1CC[C@H](Oc2nc3c(F)cc(OCC(F)F)c(Cl)c3n2C)CC1` [Example I-205], 4.6 nM.
Consider `CC(=O)N[C@@H](CF)CO[C@H]1CC[C@H](Oc2nc3c(C#N)cc(OC4CC4)c(F)c3n2C)CC1` [Example I-206], for which the IC50 was determined as 12 nM.
Consider `CC(=O)N[C@@H](C)CO[C@H]1CC[C@H](Oc2nc3cc(F)c(OC4CC4)c(F)c3n2C)CC1` [Example I-207], for which the IC50 was determined as 5.4 nM.
Regarding `CC(=O)N[C@@H](C)CO[C@H]1CC[C@H](Oc2nc3c(F)cc(OCC(F)F)c(F)c3n2C)CC1` [Example I-208], the IC50 turned out to be 8.7 nM.
Take `CC(=O)N[C@@H](C)CO[C@H]1CC[C@H](Oc2nc3c(F)c(F)c(OCC(F)F)c(F)c3n2C)CC1` [Example I-209]: the 50% inhibitory concentration (IC50) amounted to 5.3 nM.
For the compound `CC(=O)N[C@@H](CF)CO[C@H]1CC[C@H](Oc2nc3cnc(OC4CC4)c(F)c3n2C)CC1` [Example I-210], the IC50 amounted to 7.2 nM.
Then `CC(=O)N[C@@H](C)CO[C@H]1CC[C@H](Oc2nc3cc(Cl)c(F)cc3n2C)CC1` [Example I-211], with 120 nM.
On to `CC(=O)N[C@@H](C)CO[C@H]1CC[C@H](Oc2nc3cc(F)c(OC4CC4)cc3n2C)CC1` [Example I-212], for which the IC50 was determined as 55 nM.
In the case of `Cn1c(O[C@H]2CC[C@H](OC[C@H](CF)NC(N)=O)CC2)nc2c(F)cc(OC3CC3)cc21` [Example I-213], the IC50 came out at 8.9 nM.
On to `CC(=O)N[C@@H](C)C(F)(F)C[C@H]1CC[C@H](Oc2nc3c(F)cc(OCC(F)F)c(F)c3n2C)CO1` [Example I-214], for which the IC50 was determined as 12 nM.
On to `CC(=O)N[C@@H](C)CO[C@H]1CC[C@H](Oc2nc3cc(F)c(F)c(F)c3n2C)CC1` [Example I-215], for which the IC50 was 17 nM.
As for `CC(=O)N[C@@H](C)CO[C@H]1CC[C@H](Oc2nc3c(F)cc(OC4CC5(COC5)C4)c(F)c3n2C)CC1` [Example I-216], the IC50 stood at 57 nM.
`CC(=O)N[C@@H](C)CO[C@H]1CC[C@H](Oc2nc3cc(F)c(Cl)cc3n2C)CC1` [Example I-217]: the IC50 came out at 64 nM.
Regarding `C[C@@H](CO[C@H]1CC[C@H](Oc2nc3cc(F)c(OC4CC4)cc3n2C)CC1)NC(N)=O` [Example I-218], the IC50 is 120 nM.
Regarding `CC(=O)N[C@@H](C)CO[C@H]1CC[C@H](Oc2nc3c(F)cc(OC4COC4)c(Cl)c3n2C)CC1` [Example I-219], the IC50 stood at 12 nM.
`CC(=O)N[C@H](C)C(F)(F)C[C@H]1CC[C@H](Oc2nc3c(F)cc(OCC(F)F)c(F)c3n2C)CO1` [Example I-220]: the IC50 was 180 nM.
With `CC(=O)N[C@@H](C)CO[C@H]1CC[C@H](Oc2nc3ccc(OC4CC4)cc3n2C)CC1` [Example I-221], the IC50 came out at 9.1 nM.
On to `C[C@@H](CO[C@H]1CC[C@H](Oc2nc3c(Cl)cc(OC4CC4)cc3n2C)CC1)NC(N)=O` [Example I-222], for which the IC50 came out at 17 nM.
For `CC(=O)N[C@@H](C)CO[C@H]1CC[C@H](Oc2nc3c(F)cc(O[C@H]4C[C@H](O)C4)c(F)c3n2C)CC1` [Example I-223], the IC50 came to 87 nM.
In the case of `CC(=O)N[C@@H](C)CO[C@H]1CC[C@H](Oc2nc3cnc(OC4CC4)cc3n2C)CC1` [Example I-224] it was 150 nM; in that of `CC(=O)N[C@@H](C)CO[C@H]1CC[C@H](Oc2nc3c(C#N)cc(OC4CC4)cc3n2C)CC1` [Example I-225], 33 nM.
In the case of `CC(=O)N[C@@H](C)CO[C@H]1CC[C@H](Oc2nc3c(C#N)cc(OC4CCC4)c(F)c3n2C)CC1` [Example I-226], the IC50 stood at 6.1 nM.
Turning to `Cn1c(O[C@H]2CC[C@H](OC[C@H](CF)NC(=O)CC#N)CC2)nc2c(F)cc(OCC(F)F)c(F)c21` [Example I-227], the IC50 amounted to 44 nM.
Regarding `CC(=O)N[C@@H](C)CC[C@H]1OC[C@H](Oc2nc3c(F)cc(OCC(F)F)c(F)c3n2C)CC1(F)F` [Example I-228], the IC50 amounted to 13 nM.
Turning to `C[C@@H](CO[C@H]1CC[C@H](Oc2nc3cnc(OC4CC4)cc3n2C)CC1)NC(N)=O` [Example I-229], the IC50 was 600 nM.
In the case of `CC(=O)N[C@@H](C)CO[C@H]1CC[C@H](Oc2nc3c(F)cc(OC(F)F)c(F)c3n2C)CC1` [Example I-231], the IC50 came to 10 nM.
With `Cn1c(O[C@H]2CC[C@H](OC[C@H](CF)NC(N)=O)CC2)nc2c(F)cc(OCC(F)F)c(F)c21` [Example I-232], the IC50 is 11 nM.
For `CC(=O)N[C@@H](C)CO[C@H]1CC[C@H](Oc2nc3ccc(OC4CC4)nc3n2C)CC1` [Example I-234], the IC50 was 13 nM.
In the case of `C[C@@H](CO[C@H]1CC[C@H](Oc2nc3c(F)c(F)c(F)c(F)c3n2C)CC1)NC(N)=O` [Example I-235] it was 43 nM.
Regarding `C[C@@H](CO[C@H]1CC[C@H](Oc2nc3cnc(OC4CC4)c(F)c3n2C)CC1)NC(N)=O` [Example I-237], the IC50 came to 12 nM.
As to `CC(=O)N[C@@H](C)CO[C@H]1CC[C@H](Oc2nc3cc(F)c(F)cc3n2C)CC1` [Example I-238], the IC50 was found to be 83 nM.
In the case of `COC(=O)N[C@@H](CF)CO[C@H]1CC[C@H](Oc2nc3c(F)cc(OCC(F)F)c(F)c3n2C)CC1` [Example I-239] it was 30 nM.
Turning to `C[C@@H](CO[C@H]1CC[C@H](Oc2nc3ccc(OC4CC4)nc3n2C)CC1)NC(N)=O` [Example I-240], the IC50 turned out to be 44 nM.
On to `C[C@@H](CO[C@H]1CC[C@H](Oc2nc3cc(F)c(OC4CC4)c(F)c3n2C)CC1)NC(N)=O` [Example I-241], for which the IC50 turned out to be 9.5 nM.
For `C[C@@H](CO[C@H]1CC[C@H](Oc2nc3c(F)cc(OC4CC4)cc3n2C)CC1)NC(N)=O` [Example I-243], the IC50 is 5.6 nM.
With `CC(=O)N[C@@H](C)CO[C@H]1CC[C@H](Oc2nc3c(F)cc(OCC(C)(C)C#N)c(F)c3n2C)CC1` [Example I-244], the IC50 is 26 nM.
Turning to `CC(=O)N[C@@H](C)CO[C@H]1CC[C@H](Oc2nc3c(F)cc(O[C@H]4C[C@@H](O)C4)c(F)c3n2C)CC1` [Example I-246], the IC50 was found to be 78 nM.
On to `CC(=O)N[C@@H](C)CO[C@H]1CC[C@H](Oc2nc3ccc(OC4CC4)c(F)c3n2C)CC1` [Example I-247], for which the IC50 is 3.9 nM.
For the compound `CC(=O)N[C@@H](C)CC[C@H]1OC[C@H](Oc2nc3c(F)cc(OC4CC4)cc3n2C)CO1` [Example I-249], the IC50 was found to be 6.6 nM.
